Measured values taken from patent US20210317099A1, “SAFER, POTENT, AND FAST ACTING ANTIMICROBIAL AGENTS” (Purdue Research Foundation, priority 2020, published 2021).
Values after ≈ are worked out from the molar mass of the structure shown.

Tests used:
[1] = system: Enterococcus faecium ATCC 700221 (VRE); experiment: MIC, Gram-positive panel; assay type: cell-based; details: Enterococcus faecium ATCC 700221 (VRE); read-out: MIC
How it was run: (§1)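 Strains are first grown aerobically overnight at 37° C on tryptone soya agar. A 0.5 McFarland suspension is then diluted in cation-adjusted Mueller-Hinton broth, compounds are serially diluted across the plate with this inoculum, and plates stand aerobically at 37° C for 18-20 h.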

S. pneumoniae ATCC 51916 = experiment: MIC, Gram-positive panel; assay type: cell-based; details: Streptococcus pneumoniae, ATCC51916; S. pneumoniae ATCC 51916; read-out: MIC
How it was run: as §1

[2] = In vitro cytotoxicity, MTS assay; assay type: cell-based, human; details: human, Caco-2 cells; Caco-2, two hours incubation, MTS; read-out: 50% cytotoxic concentration (CC50)
Protocol: Compounds 144, 148, 151, 155, 158, and 187 were assayed (at concentrations of 16, 32, and 64 μg/mL) against a human colorectal adenocarcinoma (Caco-2) cell to determine the potential toxic effect to mammalian cells in vitro. Briefly, cells were cultured in Dulbecco's Modified Eagle Medium (DMEM) supplemented with 10% fetal bovine serum (FBS), non-essential amino acids (1×), penicillin-streptomycin at 37° C. in presence of 5% CO2. Control cells received DMSO alone at a concentration equal to that in drug-treated wells. The cells were incubated with the compounds (in triplicate) in a 96-well plate at 37° C. with 5% CO2 for two hours. This was followed by the subsequent addition of the assay reagent MTS 3-(4,5-dimethylthiazol-2-yl)-5-(3-carboxymethoxyphenyl)-2-(4-sulfophenyl)-2H-tetrazolium) (Promega, Madison, Wis., USA) and the plate was incubated for three to four hours. Absorbance readings (at OD490) were recorded using a kinetic microplate reader (Molecular Devices, Sunnyvale, Calif., USA). The quantity of viable cells after treatment with each compound was expressed as a percentage of the viability of DMSO-treated control cells (average of triplicate wells±standard deviation).
FIG. 3. Analyzing the toxicity of 144, 148, 151, 155, 158, and 187 compounds (tested in triplicates at 16, 32 and 64 μg/mL) against human colorectal cells (Caco-2) using the MTS 3-(4,5-dimethylthiazol-2-yl)-5-(3-carboxymethoxyphenyl)-2-(4-sulfophenyl)-2H-tetrazolium) assay. Results are presented as percent viable cells relative to DMSO (negative control) to determine a baseline measurement for the cytotoxic impact of each compound. The absorbance values represent an average of three samples analyzed for each compound. Error bars represent standard deviation values. The data were analyzed via a two-way ANOVA with post-hoc Dunnett's test for multiple comparisons. An asterisk (*) denotes statistical significance (P<0.05) between results for compounds and DMSO.

[3] = system: intracellular MRSA USA400 inside murine macrophage (J774) cells; experiment: Clearance of intracellular MRSA in infected J774 macrophages; assay type: cell-based, Staphylococcus aureus; details: 24 hours, J774 infected with MRSA USA400
Protocol: The ability of the compound 148 to reduce the burden of intracellular MRSA was evaluated utilizing previously described methods. Murine macrophage cells (J774) were cultured in Dulbecco's Modified Eagle Medium (DMEM) supplemented with 10% FBS at 37° C. with CO2 (5%). J774 cells were exposed to MRSA USA400 cells at a multiplicity of infection of approximately 10:1. After 1 hour of infection, J774 cells were washed with gentamicin (200 μg/mL) to kill extracellular MRSA. The compounds or vancomycin (at 4×MIC and 8×MIC) were subsequently added to each well (four replicates per test agent). Control cells received DMSO at a concentration equal to that in drug-treated cell samples. After 24 hours-incubation at 37° C. with 5% CO2, the test agents were removed. J774 cells were washed and subsequently lysed using 0.1% Triton-X. The solution was serially diluted in phosphate-buffered saline and transferred to TSA plates in order to determine viable MRSA CFU inside the J774 cells. Plates were incubated at 37° C. for 18-22 hour before counting viable CFU/mL. Statistical significance was assessed with two-way ANOVA, with post hoc Dunnet's multiple comparisons test (P<0.05), utilizing GraphPad Prism 6.0 (GraphPad Software, La Jolla, Calif.).
FIG. 6. Examination of the activity of compounds 148 on the clearance of intracellular MRSA present inside infected murine macrophage (J774) cells. […] Data were analyzed via two-way ANOVA, with post hoc Dunnet's multiple comparisons test (P<0.05), utilizing GraphPad Prism 6.0 (GraphPad Software, La Jolla, Calif.). Asterisks (*) represent significant difference between treatment of J774 cells with compound 148 in comparison to vancomycin.

| Structure (SMILES) | MIC [1] [µg/mL] | MIC (S. pneumoniae ATCC 51916) [µg/mL] | CC50 at 2 h [2] [µg/mL] | reduction of intracellular MRSA ([3]; 4 μg/mL) [log10] | reduction of intracellular MRSA (percent) ([3]; 4 μg/mL) [%] | reduction of intracellular MRSA ([3]; 8 μg/mL) | reduction of intracellular MRSA (percent) ([3]; 8 μg/mL) [%] |
| --- | --- | --- | --- | --- | --- | --- | --- |
| C=C1C(=O)O[C@H](c2ccc3ccccc3c2)[C@@H]1c1ccc2ccccc2c1 [Compound 158] | > 64 | 2 (≈ 5.71 µM) | > 64 |  |  |  |  |
| C=C1C(=O)O[C@H](c2ccccc2)[C@@H]1c1cccc2ccccc12 [Compound 151] | > 64 | 4 (≈ 13.3 µM) | > 64 |  |  |  |  |
| C=C(C(=O)OC)C(c1ccc2ccccc2c1)C(O)c1cccc2ccccc12 (stereo not drawn) [Compound 148] | > 64 | 1 (≈ 2.61 µM) | > 64 | 0.8 | 84.9 | about 2.52 log10 | 99.7 |
| C=C1C(=O)O[C@H](c2cccc3ccccc23)[C@@H]1c1ccc2ccccc2c1 [Compound 155] | > 64 | 1 (≈ 2.85 µM) |  |  |  |  |  |
